From patent publication US12065445B2, “CDK2 inhibitors and methods of using the same” (Cedilla Therapeutics, Inc., priority 2021, dated 2024)

System: Kuramochi cells
Test: BrdU Cell Proliferation Assay
Format: cell-based
Settings: read-out: BrdU - KURAMOCHI.1: IC50
Experimental: A BrdU assay was used as a measure of proliferation based on the DNA replication process of proliferating cells. BrdU, a pyrimidine analog, is added to the cell culture and incorporated into the DNA of proliferating cells. The presence of the BrdU analog was then measured through a colorimetric ELISA. After fixation and permeabilization of cells, peroxidase-conjugated antibody recognizing BrdU is added and allowed to incubate, followed by thorough washing to remove unbound antibody. In order to quantify the amount of bound antibody, peroxidase substrate is added and produces a color that can be measured at 450 nm.
On day −1, Kuramochi cells (Sekisui XenoTech JCRB0098) were seeded at 2,000 cells/well in columns 2-12 of a 96 well plate (Corning, CLS3596) in 150 μL media and allowed to adhere overnight at 37 degree with 5% CO2.
On day 0, the source plate was prepared by adding 10 mM compounds and performing 3-fold serial dilutions for a 10-point dose response of each compound. Using a multichannel pipette, 2 μL of the contents of the source plate were stamped into an intermediate plate with 500 μL of RPMI 1640 Media, GlutaMAX Supplement (Life Technologies, 61870127) in each well of a Nunc 96 DeepWell™ plate, non-treated 96 DeepWell plate, 2 mL/well, sterile, natural, 60/cs (Sigma Z717274) and mixed thoroughly. 50 μL from each well of this intermediate plate were added to 4 wells of a 96-well plate with previously seeded Kuramochi cells.
On day 4, the plates were developed using the BrdU ELISA Cell Proliferation Assay according to manufacturer's instructions (Roche, 11647229001). Briefly, BrdU was diluted 1:100 in Gibco®, OptiMEM® and 20 μL/well was added, shaken for 10 minutes at 350 rpm, and then returned to the incubator for 1 hour. Following incubation, the medium was discarded, and the cells were fixed by adding 200 μL of Fix/Denature solution. The anti-BrdU peroxidase antibody was diluted 1:1000 in OptiMEM, added at 100 μL/well, and incubated while shaking (350 rpm) for one hour. Three washes with PBS were performed to remove any unbound antibody, followed by the addition of 100 μL of substrate solution to each well. 25 μL/well of 1M sulfuric acid solution was then added to halt the reaction, and plates were read out using an Envision spectrophotometer (Perkin Elmer) set to read 450 nm absorbance. Background absorbance values from empty wells were subtracted from all samples and then normalized to DMSO treated wells.

Structure (SMILES)	IC50 [µM]
CNC(=O)[C@@H](NC(=O)[C@H]1CN(C(=O)c2cnc[nH]2)CC12CN(C(=O)[C@H]1CC1(C)C)C2)[C@@H](C)OCc1ccccc1 [I-44B]	> 10
CNC(=O)[C@@H](NC(=O)[C@@H]1CN(C(=O)c2ccccn2)CC12CN(C(=O)[C@H]1CC1(C)C)C2)[C@@H](C)OCc1ccccc1 [I-45A]	> 10
CNC(=O)[C@@H](NC(=O)[C@H]1CN(C(=O)c2ccccn2)CC12CN(C(=O)[C@H]1CC1(C)C)C2)[C@@H](C)OCc1ccccc1 [I-45B]	> 10
CNC(=O)[C@@H](NC(=O)[C@@H]1CN(C(=O)c2ccncc2)CC12CN(C(=O)[C@H]1CC1(C)C)C2)[C@@H](C)OCc1ccccc1 [I-46A]	> 10
CNC(=O)[C@@H](NC(=O)[C@H]1CN(C(=O)c2ccncc2)CC12CN(C(=O)[C@H]1CC1(C)C)C2)[C@@H](C)OCc1ccccc1 [I-46B]	> 10
CNC(=O)[C@@H](NC(=O)[C@@H]1CN(Cc2cnn(C)c2)CC12CN(C(=O)[C@H]1CC1(C)C)C2)[C@@H](C)OCc1ccccc1 [I-47A]	> 10
CNC(=O)[C@@H](NC(=O)[C@@H]1CN(C(=O)Nc2cnn(Cc3ccccc3)c2)CC12CN(C(=O)[C@H]1CC1(C)C)C2)[C@@H](C)OCc1ccccc1 [I-48A, (S)—N6-(1-benzyl-1H-pyrazol-4-yl)-N8-((2S,3R)-3-(benzyloxy)-1-(methylamino)-1-oxobutan-2-yl)-2-((S)-2,2-dimethylcyclopropane-1-carbonyl)-2,6-diazaspiro[3.4]octane-6,8-dicarboxamide]	> 10
CNC(=O)[C@@H](NC(=O)[C@H]1CN(C(=O)Nc2cnn(Cc3ccccc3)c2)CC12CN(C(=O)[C@H]1CC1(C)C)C2)[C@@H](C)OCc1ccccc1 [I-48B]	> 10
CNC(=O)[C@@H](NC(=O)[C@H]1CN(Cc2cccnc2)CC12CN(C(=O)[C@H]1CC1(C)C)C2)[C@@H](C)OCc1ccccc1 [I-49B]	> 10
CNC(=O)[C@@H](NC(=O)[C@@H]1CN(Cc2cn[nH]c2)CC12CN(C(=O)[C@H]1CC1(C)C)C2)[C@@H](C)OCc1ccccc1 [I-50A]	> 10
CNC(=O)[C@@H](NC(=O)[C@H]1CN(Cc2cn[nH]c2)CC12CN(C(=O)[C@H]1CC1(C)C)C2)[C@@H](C)OCc1ccccc1 [I-50B]	> 10
CNC(=O)[C@@H](NC(=O)[C@H]1CN(Cc2cncs2)CC12CN(C(=O)[C@H]1CC1(C)C)C2)[C@@H](C)OCc1ccccc1 [I-51B]	> 10
CNC(=O)[C@@H](NC(=O)[C@@H]1CN(C(=O)c2cnn(CC3CC3)c2)CC12CN(C(=O)CC1CC1)C2)[C@@H](C)OCc1ccccc1 [I-53A]	> 10
CNC(=O)[C@@H](NC(=O)[C@H]1CN(C(=O)c2cnn(CC3CC3)c2)CC12CN(C(=O)CC1CC1)C2)[C@@H](C)OCc1ccccc1 [I-53B]	> 10
CNC(=O)[C@@H](NC(=O)[C@@H]1CN(C(=O)c2cnn(Cc3ccccc3)c2)CC12CN(C(=O)C(C)C)C2)[C@@H](C)OCc1ccccc1 [I-54A]	> 10
CNC(=O)[C@@H](NC(=O)[C@H]1CN(C(=O)c2cnn(Cc3ccccc3)c2)CC12CN(C(=O)C(C)C)C2)[C@@H](C)OCc1ccccc1 [I-54B]	> 10
CNC(=O)[C@@H](NC(=O)[C@@H]1CN(Cc2ccncc2)CC12CN(C(=O)[C@H]1CC1(C)C)C2)[C@@H](C)OCc1ccccc1 [I-55A]	> 10
CNC(=O)[C@@H](NC(=O)[C@H]1CN(Cc2ccncc2)CC12CN(C(=O)[C@H]1CC1(C)C)C2)[C@@H](C)OCc1ccccc1 [I-55B]	> 10
CNC(=O)[C@@H](NC(=O)[C@@H]1CN(C(=O)c2cnn(Cc3ccccc3)c2)CC12CN(C(=O)CC1CC1)C2)[C@@H](C)OCC1CCCCC1 [I-56A]	> 10
CNC(=O)[C@@H](NC(=O)[C@H]1CN(C(=O)c2cnn(Cc3ccccc3)c2)CC12CN(C(=O)CC1CC1)C2)[C@@H](C)OCC1CCCCC1 [I-56B]	> 10
CC1(C)C[C@@H]1C(=O)N1CC2(CN(C(=O)c3cnn(Cc4ccccc4)c3)C[C@H]2C(=O)N2CCC(Cc3ccccc3)CC2)C1 [I-58A]	> 10
CC1(C)C[C@@H]1C(=O)N1CC2(CN(C(=O)c3cnn(Cc4ccccc4)c3)C[C@@H]2C(=O)N2CCC(Cc3ccccc3)CC2)C1 [I-58B]	> 10

Structure (SMILES)	IC50 [µM]
CC1(C)C[C@@H]1C(=O)N1CC2(CN(C(=O)c3cnn(Cc4ccccc4)c3)C[C@H]2C(=O)NC2CCCN(C(=O)c3ccccc3)C2)C1 (stereo partly shown) [I-59A]	> 10
CC1(C)C[C@@H]1C(=O)N1CC2(CN(C(=O)c3cnn(Cc4ccccc4)c3)C[C@@H]2C(=O)NC2CCCN(C(=O)c3ccccc3)C2)C1 (stereo partly shown) [I-59B]	> 10
CCCC(=O)N1CC2(C1)CN(C(=O)c1cnn(Cc3ccccc3)c1)C[C@H]2C(=O)N[C@H](C(=O)NC)[C@@H](C)OCc1ccccc1 [I-60A]	> 10
CCCC(=O)N1CC2(C1)CN(C(=O)c1cnn(Cc3ccccc3)c1)C[C@@H]2C(=O)N[C@H](C(=O)NC)[C@@H](C)OCc1ccccc1 [I-60B]	> 10
CC1(C)C[C@@H]1C(=O)N1CC2(CN(C(=O)c3cnn(Cc4ccccc4)c3)C[C@H]2C(=O)NC2CCN(C(=O)c3ccccc3)CC2)C1 [I-61A]	> 10
CC1(C)C[C@@H]1C(=O)N1CC2(CN(C(=O)c3cnn(Cc4ccccc4)c3)C[C@@H]2C(=O)NC2CCN(C(=O)c3ccccc3)CC2)C1 [I-61B]	> 10
CNC(=O)[C@@H](NC(=O)[C@@H]1CN(C(=O)c2cnn(Cc3ccccc3)c2)CC12CN(C(=O)CC(C)(C)C)C2)[C@@H](C)OCc1ccccc1 [I-62A]	> 10
CNC(=O)[C@@H](NC(=O)[C@H]1CN(C(=O)c2cnn(Cc3ccccc3)c2)CC12CN(C(=O)CC(C)(C)C)C2)[C@@H](C)OCc1ccccc1 [I-62B]	> 10
CC1(C)C[C@@H]1C(=O)N1CC2(CN(C(=O)c3cnn(Cc4ccccc4)c3)C[C@H]2C(=O)Nc2cccc(-c3ccccc3)c2)C1 [I-63A]	5 to 10
CC1(C)C[C@@H]1C(=O)N1CC2(CN(C(=O)c3cnn(Cc4ccccc4)c3)C[C@@H]2C(=O)Nc2cccc(-c3ccccc3)c2)C1 [I-63B]	> 10
COCC1CCCN(C(=O)[C@@H](NC(=O)C2CN(C(=O)c3cnn(Cc4ccccc4)c3)CC23CN(C(=O)[C@H]2CC2(C)C)C3)[C@@H](C)OCc2ccccc2)C1 (stereo partly shown) [I-64]	0.5 to 5
CNC(=O)[C@@H](NC(=O)[C@@H]1CN(C(=O)c2cnn(Cc3ccccc3)c2)CC12CN(C(=O)C(C)(C)C)C2)[C@@H](C)OCc1ccccc1 [I-65A]	> 10
CNC(=O)[C@@H](NC(=O)[C@H]1CN(C(=O)c2cnn(Cc3ccccc3)c2)CC12CN(C(=O)C(C)(C)C)C2)[C@@H](C)OCc1ccccc1 [I-65B]	> 10
CNC(=O)[C@@H](NC(=O)[C@@H]1CN(C(=O)c2cn[nH]c2)CC12CN(C(=O)[C@H]1CC1(C)C)C2)[C@@H](C)OCC1CCCCC1 [I-66A, (S)—N-((2S,3R)-3-(cyclohexylmethoxy)-1-(methylamino)-1-oxobutan-2-yl)-2-((S)-2,2-dimethylcyclopropane-1-carbonyl)-6-(1H-pyrazole-4-carbonyl)-2,6-diazaspiro[3.4]octane-8-carboxamide]	> 10
CNC(=O)[C@@H](NC(=O)[C@H]1CN(C(=O)c2cn[nH]c2)CC12CN(C(=O)[C@H]1CC1(C)C)C2)[C@@H](C)OCC1CCCCC1 [I-66B]	> 10
CNC(=O)[C@@H](NC(=O)[C@@H]1CN(C(=O)c2cnn(Cc3ccccc3)c2)CC12CN(C(=O)C1(C)CC1)C2)[C@@H](C)OCc1ccccc1 [I-67A, (S)-6-(1-benzyl-1H-pyrazole-4-carbonyl)-N-((2S,3R)-3-(benzyloxy)-1-(methylamino)-1-oxobutan-2-yl)-2-(1-methylcyclopropane-1-carbonyl)-2,6-diazaspiro[3.4]octane-8-carboxamide]	> 10
CNC(=O)[C@@H](NC(=O)[C@H]1CN(C(=O)c2cnn(Cc3ccccc3)c2)CC12CN(C(=O)C1(C)CC1)C2)[C@@H](C)OCc1ccccc1 [I-67B]	> 10
CNC(=O)[C@@H](NC(=O)[C@@H]1CN(CC2CCOCC2)CC12CN(C(=O)[C@H]1CC1(C)C)C2)[C@@H](C)OCc1ccccc1 [I-68A]	> 10
CNC(=O)[C@@H](NC(=O)[C@@H]1CN(C(=O)c2cnn(Cc3ccccc3)c2)CC12CN(C(=O)CC(C)C)C2)[C@@H](C)OCc1ccccc1 [I-69A]	> 10
CNC(=O)[C@@H](NC(=O)[C@H]1CN(C(=O)c2cnn(Cc3ccccc3)c2)CC12CN(C(=O)CC(C)C)C2)[C@@H](C)OCc1ccccc1 [I-69B]	> 10
CNC(=O)[C@@H](NC(=O)[C@@H]1CN(C(=O)C2CCNC2)CC12CN(C(=O)[C@H]1CC1(C)C)C2)[C@@H](C)OCc1ccccc1 (stereo partly drawn) [I-70A, (8S)—N-((2S,3R)-3-(benzyloxy)-1-(methylamino)-1-oxobutan-2-yl)-2-((S)-2,2-dimethylcyclopropane-1-carbonyl)-6-(pyrrolidine-3-carbonyl)-2,6-diazaspiro[3.4]octane-8-carboxamide]	> 10
